The results in this text go back to US7407763B2, “Systems and methods for detecting and regulating metastasis” (The Regents of the University of Michigan, priority 2004, dated 2008).

One assay concerns RKIP mRNA expression. The experiment in a line: RKIP mRNA expression in RWPE cells by real-time RT-PCR. It counts as cell-based, human.
The subject of the next assay is putative RKIP ARE. Particulars: RWPE nuclear extracts, 5 nM DHT, as early as 30 min. The protocol: The reaction was allowed to proceed for 30 min at room temperature.
In a further assay the test system is human RKIP promoter. To be noted: RWPE cells, DHT 5 nM, 10 nM, 24 h, compared to basal activity.
The test system of another assay is C4-2B cells. In words: In vitro invasion assay with protein kinase inhibitors. It counts as cell-based, human. Particulars: in vitro invasion through matrix, C4-2B cells (FIG. 4). The protocol: The invasiveness of control and sense or antisense-transfected cell clones was evaluated in 24-well transwell chambers (Costar, Cambridge, Mass.) as directed by the manufacturer. Briefly, the upper and lower culture compartments were separated by polycarbonate filters with 8-μm pore size. Some wells were coated with 100 μg/cm^2 collagen matrix (MATRIGEL, Collaborative Biomedical Products, Bedford, Mass.) that was reconstituted by adding 0.5 ml of serum-free T medium for 2 hours. […] Cell penetration through the membrane was quantified by staining the porous membrane with a Diff-Quik stain kit. The numbers of cells that penetrated through the membrane were counted in five microscopic fields (×200) per filter. Invasive ability was then determined as the proportion of cells that invaded through the matrix-coated membrane relative to the number of cells that migrated through the uncoated membrane (baseline migration). […]
Furthermore, because RKIP inhibits tumor invasiveness, it was investigated whether RKIP exerts its metastasis suppressor gene function through regulation of MEK activation. […] Accordingly, the effect of a variety of kinase inhibitors was evaluated, including a MEK inhibitor (PD098059) on in vitro invasion. […]

A further assay relates to RKIP mRNA levels. In words: RKIP mRNA levels in LNCaP cells by real time PCR. Particulars: IL-6 50 ng/ml, 6 or 24 hours (FIG. 7). It counts as cell-based, human. As to the method:
LNCaP cells were plated in culture dishes and treated with IL-6 (50 ng/ml) or vehicle for 6 or 24 hours. Total RNA was collected and subjected to real time PCR for RKIP mRNA levels. RKIP mRNA levels were normalized to β-galactosidase mRNA levels.
In general terms: In qPCR the cycle at which signal appears reflects the starting amount.

Regarding `C[C@@H]1C[C@@H]([C@H](O)CC2CC(=O)NC(=O)C2)C(=O)[C@@H](C)C1` [CHX, cycloheximide], the “expression of RKIP, treatment alone” value in the assay on RKIP mRNA expression (RWPE cells, 24 h, CHX alone (FIG. 12C)) is on record as “did not change the expression of RKIP”.
As for `CC(O)(CS(=O)(=O)c1ccc(F)cc1)C(=O)Nc1ccc(C#N)c(C(F)(F)F)c1` (stereo not drawn) [Casodex], in the assay with RKIP mRNA expression (RWPE cells, 24 h, casodex in the presence of DHT (FIG. 12B)), the “effect on DHT induction of RKIP mRNA expression” value was “substantially reduced”.
In the case of `C[C@]12CCC(=O)C[C@@H]1CC[C@@H]1[C@@H]2CC[C@]2(C)[C@@H](O)CC[C@@H]12` [DHT, dihydrotestosterone], the “DNA binding activity to RKIP ARE probe” value with putative RKIP ARE is recorded as “rapid increase in DNA binding activity”. For the same molecule, the “increase in luciferase activity of RKIP promoter plasmid” value with human RKIP promoter is listed as “approximately 3 fold”. In addition, in the assay with RKIP mRNA expression, the “RKIP expression in cells treated with CHX” value is “increase in RKIP expression”, the “increase in RKIP mRNA at 1 nM” value was “significant (P<0.01) increase”, the “induction of RKIP expression at 0.1 nM” value is recorded as “almost no induction” and the “maximum induction of RKIP mRNA expression” value was determined as 1.5 fold. For the same molecule, the “induction of RKIP expression at saturating amounts (>=5 nM)” value in the assay on RKIP mRNA expression (RWPE cells, 24 h, >=5 nM DHT) is “significant (P<0.01) induction”. The “RKIP mRNA expression versus DHT concentration” value with RKIP mRNA expression (RWPE cells, 24 h, various concentrations of DHT) is on record as “dose-dependent increase”.
In the case of `COc1cccc(-c2cc(=O)c3ccccc3o2)c1N` [PD098059], the “decrease of invasive ability of C4-2B cells” value in the assay with C4-2B cells is recorded as 41%.
On to IL-6: the cytokine interleukin-6, for which, in the assay with RKIP mRNA levels, the “RKIP expression in LNCaP prostate cancer cells” value is “reduces RKIP expression”.
